Patent US10674725B1, “Herbicidal composition and method for controlling weeds” (SUMITOMO CHEMICAL COMPANY, LIMITED, priority 2019, dated 2020)

How the values were obtained:
corn plant = conditions: corn at 2.5-leaf stage, spot-on 2nd leaf; dicamba-biproamine 4,000,000 ng/plant (acid equivalent), PPO inhibitor 2 ng/plant where added; 6 days after treatment
Protocol: An aqueous dilution of trifludimoxazin was prepared by mixing one part of a trifludimoxazin formulation (obtained by mixing a predetermined amount of trifludimoxazin with acetone containing 2% of Tween 20) with 4 parts of water, so as to have a concentration of 0.1 ppm of trifludimoxazin.
6 days after the spot-on treatments, an angle of inclination of the main tiller of the corn plant from the vertical line was measured as a quantitative measure of dicamba corn injury of leaning tiller.

soybean plant = conditions: soybean at 2 trifoliate leaf stage, spot-on 2nd trifoliate leaf; dicamba-biproamine 40,000 ng/plant (acid equivalent), PPO inhibitor 20 ng/plant where added; 6 days after treatment; visually estimated

- Angle of inclination of the main tiller from the vertical line (corn plant): 90 degrees
- Leaf area (% of non-treated) (soybean plant): 40%
SMILES: CN(CCCN)CCCN.COc1c(Cl)ccc(Cl)c1C(=O)O [Dicamba-biproamine, dicamba-biproamine]
